Test results taken from article PMC9582160, “Inhibition of MRGPRX2 but not FcεRI or MrgprB2-mediated mast cell degranulation by a small molecule inverse receptor agonist” (Frontiers in Immunology, 2022).

Molecular target: T1, MrgprB2 (Mus musculus, UniProt Q3KNA1)
T1 construct: endogenous receptor in mouse peritoneal mast cells
T1 sequence (Q3KNA1 1-338): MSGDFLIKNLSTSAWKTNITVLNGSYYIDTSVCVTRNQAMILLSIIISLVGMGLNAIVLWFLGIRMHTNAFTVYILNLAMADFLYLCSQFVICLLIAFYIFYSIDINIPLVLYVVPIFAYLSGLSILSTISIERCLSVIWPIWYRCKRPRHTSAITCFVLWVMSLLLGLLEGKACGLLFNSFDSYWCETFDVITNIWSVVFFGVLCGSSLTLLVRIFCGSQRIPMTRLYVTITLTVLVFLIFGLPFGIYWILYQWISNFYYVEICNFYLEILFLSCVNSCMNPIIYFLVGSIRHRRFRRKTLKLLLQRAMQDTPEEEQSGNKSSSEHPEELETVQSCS
Assay: agonist: β-hexosaminidase release in WT peritoneal mast cells at […], absent in MrgprB2-/- cells
Type: cell-based

## C=CC[N+]1([C@H]2C[C@H]3[C@@H]4CC[C@H]5C[C@H](O)[C@@H](N6CCOCC6)C[C@]5(C)[C@H]4CC[C@]3(C)[C@H]2OC(C)=O)CCCC1 [rocuronium]
  agonist: β-hexosaminidase release in WT peritoneal mast cells at 20 μg/ml, absen: mediated via MrgprB2 by demonstrating that PMCs cultured from MrgprB2^−/− mice do not respond to these agonists
